Measurements from PMC7938888, “Antidepressant drugs act by directly binding to TRKB neurotrophin receptors” (Cell, 2021).

Legend:
surface TRKB = test: Surface TRKB ELISA in MG87.TRKB cells; assay type: cell-based, mouse; conditions: cholesterol 20 μM/15 min
Method: The surface levels of TRKB were also determined by ELISA ([Zheng et al., 2008]). Briefly, the MG87.TRKB cells or primary cortical cells from rat or mouse embryos, cultivated in clear bottom 96-well plates (ViewPlate 96, Perkin Elmer), were washed with ice-cold PBS and fixed with 100μl of 4% PFA per well. After washing with PBS and blocking with PBS containing 5% nonfat dry milk and 5% BSA, the samples were incubated with primary anti-TRKB antibody (R&D Systems, #AF1494, 1:1000 in blocking buffer) or anti-GluR1 subunit of AMPA receptors (CST, #8850, 1:2000 in blocking buffer) ON at 4°C. Following washing, the samples were incubated with HRP-conjugated anti-goat or anti-rabbit IgG (1:5000 in blocking buffer) for 1h at RT. The cells were washed 4x with 200μl of PBS for 10 min each. Finally, the chemiluminescent signal generated by reaction with ECL was analyzed in a plate reader.

mice [1] = test: BrdU incorporation (hippocampal neurogenesis); assay type: in vivo, mouse; conditions: FLX 15 mg/kg/day 21 days p.o.
Method: Animals: both males and females were used in this experiment. The Bromodeoxyuridine (BrdU) (Sigma) was administered intraperitoneally at the dose of 75 mg/kg four times every 2 hr to reach 300 mg/kg total for each animal. […] On day 21 of the drug treatment, the animals were euthanized by CO2, brains were quickly removed, followed by hippocampus dissection on ice, instantly frozen on dry ice and stored at −80°C until further use.
A semiquantitative dot-blot method was performed as previously described with minor modifications ([Wu and Castrén, 2009]). To isolate the DNA of the hippocampus samples, DNeasy® Blood and Tissue Kit (QIAGEN, Germany) was used. The extraction procedure was as per the manufacturer’s instruction. The DNA purity was assessed by the spectrophotometer NanoDrop 2000C (ThermoFisher Scientific, USA). DNA was incubated with 1 volume of 4N NaOH solution for 30 min at room temperature to render it as single stranded and immediately kept on ice to prevent reannealing. The DNA solution was neutralized by an equal volume of 1M Tris-HCl (pH 6.8). The single-stranded neutralized DNA (1ug) was dot-blotted onto a nylon transfer membrane (Schlleicher and Schuell, Keene, NH) with a dot-blot apparatus (Minifold, Schlleicher and Schuell) under vacuum and the DNA was fixed by ultraviolet cross-linker (1200 μJ × 100, Stratagene, La Jolla, CA). […]

mice [2] = test: Object location memory (OLM) test; assay type: in vivo, mouse
Method: Object-location memory (OLM): this test was performed in a square arena (28cm side) with opaque walls containing cues (black stripes or spots). The adult male and female mice (18-22 weeks old) were placed for 3 consecutive days (15min per session) in the arena with two identical objects (table tennis balls glued to caps of 50ml Falcon tubes) in the same position throughout the sessions (pretest).

Sprague-Dawley rats = test: BDNF-induced LTP in dentate gyrus of anesthetized rats; assay type: in vivo, rat; conditions: anesthetized rats, 2 μl of 1 ug/ul over 30 min
Method: In vivo electrophysiology. Intrahippocampal BDNF infusion was performed as described previously ([Messaoudi et al., 1998]). The experiments were carried out on 20 adult male Sprague-Dawley rats (15 weeks old, Janvier, France). Rats were housed in the animal facility for 1-week prior to the start of drug administration. […]
For electrophysiological experiments, rats were anesthetized with an intraperitoneal injection of urethane (U2500, Sigma-Aldrich) 1.5 g/kg body weight, positioned in a stereotaxic frame. The body temperature was constantly monitored and maintained at 37°C with an electric heating pad. Holes were drilled in the skull and a concentric bipolar stimulating electrode (Tip separation 500micrometers; SNEX 100; Rhodes Medical Instruments, Woodland Hills, CA) was positioned in the angular bundle for stimulation of the medial perforant path (7.9 mm posterior to bregma, 4.2 mm lateral to the midline, and 2.5 mm below the dura. […]
Responses were allowed to stabilize for 1 hour at a stimulation intensity that produced a population spike 30% of maximum. […] Evoked responses were recorded for 120 min post infusion. Recorded field potentials were amplified, filtered (0.1 Hz to 10 kHz), and digitized (25 kHz). Electrophysiological data was analyzed using Datawave Technologies Software company. […]

In the case of `CC(C)CCC[C@@H](C)[C@H]1CC[C@H]2[C@@H]3CC=C4C[C@@H](O)CC[C@]4(C)[C@H]3CC[C@]12C` [CHOL, cholesterol], the “cell surface translocation of TRKB” value (surface TRKB) is reported as “increased cell surface translocation of TRKB”.

With `CNCCC(Oc1ccc(C(F)(F)F)cc1)c1ccccc1` (centres unmarked) [FLX, fluoxetine] the “survival of newborn hippocampal neurons” value (mice [1]; TRKB.Y433F mice) was “no increase was observed”, the “survival of newborn hippocampal neurons” value (mice [1]; wild-type mice) was “significantly increased survival of newborn hippocampal neurons” and the “response in OLM test” value (mice [2]; BDNF haploinsufficient mice) was “lack of response”. For the same molecule, the “long-term memory in OLM test” value (mice [2]; TRKB.wt mice, FLX 15 mg/kg/day for 7 days) was “facilitated long-term memory”, the “response in OLM test” value (mice [2]; animals co-treated with pravastatin) was “lack of response” and the “response in OLM test” value (mice [2]; serotonin transporter knockout (5HTT.ko) mice) was “responded to FLX treatment normally”.

B1: BDNF: brain-derived neurotrophic factor, TRKB ligand (protein, UniProt P23560 19-247, looked up)
Neurotrophic factor BDNF …: APMKEANIRGQGGLAYPGVRTHGTLESVNGPKAGSRGLTSLADTFEHVIEELLDEDQKVRPNEENNKDADLYTSRVMLSSQVPLEPPLLFLLEEYKNYLDAANMSMRVRRHSDPARRGELSVCDSISEWVTAADKKTAVDMSGGTVTVLEKVPVSKGQLKQYFYETKCNPMGYTKEGCRGIDKRHWNSQCRTTQSYVRALTMDSKKRIGWRFIRIDTSCVCTLTIKRGR
With B1 the “synaptic strength after infusion into the dentate gyrus” value (Sprague-Dawley rats) was “significantly increased synaptic strength”.
